According to patent US5354754A, “Pyrrolopyrimidines, their production and use” (Takeda Chemical Industries, Ltd., priority 1989, dated 1994):
Values after ≈ are worked out from the molar mass of the structure shown.

Experiments:
[1] = tested on: dihydrofolic acid reductase; conditions: in words, prior art; cited from earlier work
[2] = tested on: glycinamide ribonucleotide transformylase; conditions: in words, Journal of Medicinal Chemistry, 28, 914(1985); cited from earlier work
[3] = tested on: Human epidermoid carcinoma KB cells; experiment: cell growth inhibiting effect on KB cells (MTT, 72 hours); assay type: cell-based; conditions: 37° C., 5% CO2, MTT, absorbance at 590 nm
Procedure: The cell growth inhibiting effect (IC50) on KB cells of the compounds obtained in the following Examples was measured by the following method. (Hereinafter, % means weight %.)
Human epidermoid carcinoma KB cells (1×10^4 /ml) prepared by a conventional method were inoculated in a volume of 0.1 ml for each hole of the 96-microwell plate, and cultured at 37° C. for 24 hours without agitation in an atmosphere of 5% CO2. A 10% solution of one compound obtained by Example in 10% MEM (minimal essential medium, Nissui Pharmaceutical Co. Ltd, Japan) was added thereto, and the cells were cultured again at 37° C. for 72 hours without agitation in an atmosphere of 5% CO2. The culture was removed by using a micropipet, and another 10% solution 0.1 ml of MTT [3-(4,5-dimethylthiazol-2-yl)-2,5-diphenyltetrazolium bromide] (Dojin Laboratories, Japan) in 10% MEM (1.0 mg/ml) was added thereto. The cells were cultured at 37° C. for 4 hours. A 10% SDS [sodium dodecylsulfate](Wako Pure Chimicals, Japan) solution (0.1 ml) was further added, and the cells were cultured at 37° C. for 24 hours. The absorbance at 590 nm was measured, and the concentration of a drug needed for decreasing the number of cells in non-treated control group to a degree of 50% was determined as IC50 value of the compound.

Row | SMILES | inhibition of dihydrofolic acid reductase [1] | inhibition of glycinamide ribonucleotide transformylase [2] | IC50 [3]
1 | Nc1nc2c(c(=O)[nH]1)C[C@@H](CCc1ccc(C(=O)N[C@@H](CCC(=O)O)C(=O)O)cc1)CN2 [DDATHF] | does not inhibit dihydrofolic acid reductase | main mechanism of which consists in inhibition of glycinamide ribonucleotide transformylase | 
2 | CN(Cc1cnc2nc(N)nc(N)c2n1)c1ccc(C(=O)N[C@@H](CCC(=O)O)C(=O)O)cc1 [methotrexate] | inhibit the reduction from dihydrofolic acid to tetrahydrofolic acid by coupling strongly with the dominant enzyme in the second step |  | 
3 | Nc1nc(N)c2c(CCCc3ccc(C(=O)N[C@@H](CCC(=O)O)C(=O)O)s3)c[nH]c2n1 [Example 3, N-[5-(3-(2,4-diamino-7H-pyrrolo[2,3-d]pyrimidin-5-yl)propyl)-2-thenoyl]-L-glutamic acid] |  |  | 0.43 ng/mL (≈ 0.963 nM)
